Measured values published in the supplement of paper PMC11424490.

Columns and labels:
[1] = tested on: NCI-H2122; test: combination cScore with adagrasib (Bliss gap around IC50) (%PoC); higher = stronger additive effect
Procedure: (§1)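 Combination screen of 179 inhibitors with the KRAS G12C inhibitor adagrasib (MRTX849) in dose matrices, CellTiter-Glo readout in NCI-H2122 (72 h), SW837 (144 h) and NCI-H358 cells. The cScore is the mean Bliss-independence gap (expected minus observed viability, in %PoC) over a 3x3 field around the IC50s of both drugs. Positive means additive, and >~10 is stated as clear additive.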

[2] = tested on: SW837; test: as above
Procedure: as §1

Q: Which results are given for `CC1=C(/C=C/C(C)=C/C=C/C(C)=C/C(=O)O)C(C)(C)CCC1` [Tretinoin] + C=C(F)C(=O)N1CCN(c2nc(OC[C@@H]3CCCN3C)nc3c2CCN(c2cccc4cccc(Cl)c24)C3)C[C@@H]1CC#N [adagrasib]?
A: combination cScore with adagrasib [1]: -2.19; combination cScore with adagrasib [2]: 2.87

Q: `N#CN=C(NCCCCCCOc1ccc(Cl)cc1)Nc1ccncc1` [GMX1778] + C=C(F)C(=O)N1CCN(c2nc(OC[C@@H]3CCCN3C)nc3c2CCN(c2cccc4cccc(Cl)c24)C3)C[C@@H]1CC#N [adagrasib] was tested. Which “combination cScore with adagrasib” value [1] did it give?
A: -7.75

Q: What about the “combination cScore with adagrasib” value [2] of the same molecule?
A: 2.82

Q: For `CCN1CCN(c2ccc(Nc3cc(N(C)C(=O)Nc4c(Cl)c(OC)cc(OC)c4Cl)ncn3)cc2)CC1` [BGJ398] + C=C(F)C(=O)N1CCN(c2nc(OC[C@@H]3CCCN3C)nc3c2CCN(c2cccc4cccc(Cl)c24)C3)C[C@@H]1CC#N [adagrasib], which “combination cScore with adagrasib” value [1] is on record?
A: -3.17

Q: And the “combination cScore with adagrasib” value [2]?
A: 3.09

Q: What does the source list for `COc1cc2c(NC3CCN(C(C)C)CC3)nc(C3CCCCC3)nc2cc1OCCCN1CCCC1` [UNC0638] + C=C(F)C(=O)N1CCN(c2nc(OC[C@@H]3CCCN3C)nc3c2CCN(c2cccc4cccc(Cl)c24)C3)C[C@@H]1CC#N [adagrasib]?
A: combination cScore with adagrasib [1]: 5.77; combination cScore with adagrasib [2]: 13.2

Q: For `O=C(O)CCCCC(CCSCc1ccccc1)SCc1ccccc1` (centres undefined) [CPI-613] + C=C(F)C(=O)N1CCN(c2nc(OC[C@@H]3CCCN3C)nc3c2CCN(c2cccc4cccc(Cl)c24)C3)C[C@@H]1CC#N [adagrasib], which “combination cScore with adagrasib” value [1] is on record?
A: -5.48

Q: And the “combination cScore with adagrasib” value [2]?
A: 1.41

Q: What does the source list for `N#CC[C@H](C1CCCC1)n1cc(-c2ncnc3[nH]ccc23)cn1` [Ruxolitinib] + C=C(F)C(=O)N1CCN(c2nc(OC[C@@H]3CCCN3C)nc3c2CCN(c2cccc4cccc(Cl)c24)C3)C[C@@H]1CC#N [adagrasib]?
A: combination cScore with adagrasib [1]: -2.1; combination cScore with adagrasib [2]: 0.75

Q: `Cc1ncc(NC(=O)c2cccc(C(F)(F)F)c2)cc1-c1cnc(OC2CCOCC2)c(N2CCOCC2)c1` [RAF-709] + C=C(F)C(=O)N1CCN(c2nc(OC[C@@H]3CCCN3C)nc3c2CCN(c2cccc4cccc(Cl)c24)C3)C[C@@H]1CC#N [adagrasib] was tested. Which “combination cScore with adagrasib” value [1] did it give?
A: 7.22

Q: What about the “combination cScore with adagrasib” value [2] of the same molecule?
A: 4.87

Q: How did the “combination cScore with adagrasib” value [1] turn out when `N[C@@H](Cc1ccc(N(CCCl)CCCl)cc1)C(=O)O` [Melphalan] + C=C(F)C(=O)N1CCN(c2nc(OC[C@@H]3CCCN3C)nc3c2CCN(c2cccc4cccc(Cl)c24)C3)C[C@@H]1CC#N [adagrasib] was run?
A: 3.55

Q: And the “combination cScore with adagrasib” value [2]?
A: -0.68

Q: How did the “combination cScore with adagrasib” value [1] turn out when `CC(=O)O[C@@]12CO[C@@H]1C[C@H](O)[C@@]1(C)C(=O)[C@H](O)C3=C(C)[C@@H](OC(=O)[C@H](O)[C@@H](NC(=O)OC(C)(C)C)c4ccccc4)C[C@@](O)([C@@H](OC(=O)c4ccccc4)[C@H]21)C3(C)C` [Docetaxel] + C=C(F)C(=O)N1CCN(c2nc(OC[C@@H]3CCCN3C)nc3c2CCN(c2cccc4cccc(Cl)c24)C3)C[C@@H]1CC#N [adagrasib] was run?
A: 3.05

Q: And the “combination cScore with adagrasib” value [2]?
A: 0.74

Q: What does the source list for `O=c1[nH]cc(F)c(=O)[nH]1` [Fluorouracil (5-FU)] + C=C(F)C(=O)N1CCN(c2nc(OC[C@@H]3CCCN3C)nc3c2CCN(c2cccc4cccc(Cl)c24)C3)C[C@@H]1CC#N [adagrasib]?
A: combination cScore with adagrasib [1]: 9.62; combination cScore with adagrasib [2]: -0.87

Q: `CC(C)NC[C@@H](C(=O)N1CCN(c2ncnc3c2[C@H](C)C[C@H]3O)CC1)c1ccc(Cl)cc1` [Ipatasertib] + C=C(F)C(=O)N1CCN(c2nc(OC[C@@H]3CCCN3C)nc3c2CCN(c2cccc4cccc(Cl)c24)C3)C[C@@H]1CC#N [adagrasib] was tested. Which “combination cScore with adagrasib” value [1] did it give?
A: 1.14

Q: What about the “combination cScore with adagrasib” value [2] of the same molecule?
A: 6.57

Q: For `N.N.[Cl][Pt][Cl]` [Cisplatin] + C=C(F)C(=O)N1CCN(c2nc(OC[C@@H]3CCCN3C)nc3c2CCN(c2cccc4cccc(Cl)c24)C3)C[C@@H]1CC#N [adagrasib], which “combination cScore with adagrasib” value [1] is on record?
A: -1.07

Q: What about the “combination cScore with adagrasib” value [2] of the same molecule?
A: -1.26

Q: For `Nc1nc(F)nc2c1ncn2[C@@H]1O[C@H](CO)[C@@H](O)[C@@H]1O` [Fludarabine] + C=C(F)C(=O)N1CCN(c2nc(OC[C@@H]3CCCN3C)nc3c2CCN(c2cccc4cccc(Cl)c24)C3)C[C@@H]1CC#N [adagrasib], which “combination cScore with adagrasib” value [1] is on record?
A: -6.95

Q: What about the “combination cScore with adagrasib” value [2] of the same molecule?
A: 2.57

Q: What does the source list for `Nc1nc(Nc2ccc3c(c2)CC[C@@H](N2CCCC2)CC3)nn1-c1cc2c(nn1)-c1ccccc1CCC2` [Bemcentinib] + C=C(F)C(=O)N1CCN(c2nc(OC[C@@H]3CCCN3C)nc3c2CCN(c2cccc4cccc(Cl)c24)C3)C[C@@H]1CC#N [adagrasib]?
A: combination cScore with adagrasib [1]: -0.08; combination cScore with adagrasib [2]: -0.26

Q: Which results are given for `CC1(C)CCC(CN2CCN(c3ccc(C(=O)NS(=O)(=O)c4ccc(NCC5CCOCC5)c([N+](=O)[O-])c4)c(Oc4cnc5[nH]ccc5c4)c3)CC2)=C(c2ccc(Cl)cc2)C1` [ABT-199] + C=C(F)C(=O)N1CCN(c2nc(OC[C@@H]3CCCN3C)nc3c2CCN(c2cccc4cccc(Cl)c24)C3)C[C@@H]1CC#N [adagrasib]?
A: combination cScore with adagrasib [1]: 3.14; combination cScore with adagrasib [2]: -3.71

Q: Which “combination cScore with adagrasib” value [1] does the source give for `C[C@@H](Oc1cc(-c2cnn(C3CCNCC3)c2)cnc1N)c1c(Cl)ccc(F)c1Cl` + C=C(F)C(=O)N1CCN(c2nc(OC[C@@H]3CCCN3C)nc3c2CCN(c2cccc4cccc(Cl)c24)C3)C[C@@H]1CC#N [adagrasib] here?
A: 6.58

Q: What about the “combination cScore with adagrasib” value [2] of the same molecule?
A: 12.7

Q: `CN(C)C(=N)NC(=N)N` [Metformin] + C=C(F)C(=O)N1CCN(c2nc(OC[C@@H]3CCCN3C)nc3c2CCN(c2cccc4cccc(Cl)c24)C3)C[C@@H]1CC#N [adagrasib] was tested. Which “combination cScore with adagrasib” value [1] did it give?
A: -8.41

Q: And the “combination cScore with adagrasib” value [2]?
A: 1.92

Q: Which “combination cScore with adagrasib” value [1] does the source give for `COc1ccc(Cn2ccc3ccc(C(=O)NO)cc32)cc1` + C=C(F)C(=O)N1CCN(c2nc(OC[C@@H]3CCCN3C)nc3c2CCN(c2cccc4cccc(Cl)c24)C3)C[C@@H]1CC#N [adagrasib] here?
A: 2.01

Q: And the “combination cScore with adagrasib” value [2]?
A: 1.45

Q: What does the source list for `Nc1ccn([C@@H]2O[C@H](CO)[C@@H](O)[C@@H]2O)c(=O)n1` [Cytarabin] + C=C(F)C(=O)N1CCN(c2nc(OC[C@@H]3CCCN3C)nc3c2CCN(c2cccc4cccc(Cl)c24)C3)C[C@@H]1CC#N [adagrasib]?
A: combination cScore with adagrasib [1]: -0.23; combination cScore with adagrasib [2]: 6.75

Q: For `CC(=O)O[C@H]1C(=O)[C@@]2(C)[C@H]([C@H](OC(=O)c3ccccc3)[C@]3(O)C[C@H](OC(=O)[C@H](O)[C@@H](NC(=O)c4ccccc4)c4ccccc4)C(C)=C1C3(C)C)[C@]1(OC(C)=O)CO[C@@H]1C[C@@H]2O` [Paclitaxel] + C=C(F)C(=O)N1CCN(c2nc(OC[C@@H]3CCCN3C)nc3c2CCN(c2cccc4cccc(Cl)c24)C3)C[C@@H]1CC#N [adagrasib], which “combination cScore with adagrasib” value [1] is on record?
A: 0.85

Q: And the “combination cScore with adagrasib” value [2]?
A: 2.18

Q: Which results are given for `O=C(c1ccc(F)c(F)c1Nc1ccc(I)cc1F)N1CC(O)([C@@H]2CCCCN2)C1` [Cobimetinib] + C=C(F)C(=O)N1CCN(c2nc(OC[C@@H]3CCCN3C)nc3c2CCN(c2cccc4cccc(Cl)c24)C3)C[C@@H]1CC#N [adagrasib]?
A: combination cScore with adagrasib [1]: 2.78; combination cScore with adagrasib [2]: 13.2

Q: Which “combination cScore with adagrasib” value [1] does the source give for `CNC(=O)c1cc(Oc2ccc(NC(=O)Nc3ccc(Cl)c(C(F)(F)F)c3)c(F)c2)ccn1` [Regorafenib] + C=C(F)C(=O)N1CCN(c2nc(OC[C@@H]3CCCN3C)nc3c2CCN(c2cccc4cccc(Cl)c24)C3)C[C@@H]1CC#N [adagrasib] here?
A: -3.41

Q: And the “combination cScore with adagrasib” value [2]?
A: -1.71

Q: What does the source list for `Cc1[nH]c2ccccc2c1CCNCc1ccc(/C=C/C(=O)NO)cc1` [Panobinostat] + C=C(F)C(=O)N1CCN(c2nc(OC[C@@H]3CCCN3C)nc3c2CCN(c2cccc4cccc(Cl)c24)C3)C[C@@H]1CC#N [adagrasib]?
A: combination cScore with adagrasib [1]: 2.38; combination cScore with adagrasib [2]: 5.72

Q: How did the “combination cScore with adagrasib” value [1] turn out when `COc1cc2c(Oc3ccc4[nH]c(C)cc4c3F)ncnc2cc1OCCCN1CCCC1` [Cediranib] + C=C(F)C(=O)N1CCN(c2nc(OC[C@@H]3CCCN3C)nc3c2CCN(c2cccc4cccc(Cl)c24)C3)C[C@@H]1CC#N [adagrasib] was run?
A: -4.17

Q: What about the “combination cScore with adagrasib” value [2] of the same molecule?
A: -0.83

Q: For `Cc1ccc(NC(=O)c2ccc(CN3CCN(C)CC3)cc2)cc1Nc1nc(-c2cccnc2)cs1` [Masitinib] + C=C(F)C(=O)N1CCN(c2nc(OC[C@@H]3CCCN3C)nc3c2CCN(c2cccc4cccc(Cl)c24)C3)C[C@@H]1CC#N [adagrasib], which “combination cScore with adagrasib” value [1] is on record?
A: 5.2

Q: And the “combination cScore with adagrasib” value [2]?
A: -2.55

Q: What does the source list for `Nc1cccc2c1CN(C1CCC(=O)NC1=O)C2=O` (centres undefined) [Lenalidomide] + C=C(F)C(=O)N1CCN(c2nc(OC[C@@H]3CCCN3C)nc3c2CCN(c2cccc4cccc(Cl)c24)C3)C[C@@H]1CC#N [adagrasib]?
A: combination cScore with adagrasib [1]: -12.8; combination cScore with adagrasib [2]: -3.14

Q: For `CN[C@H]1CN(c2ccc3c(=O)c(C(=O)O)cn(-c4nccs4)c3n2)C[C@@H]1OC` [Vosaroxin] + C=C(F)C(=O)N1CCN(c2nc(OC[C@@H]3CCCN3C)nc3c2CCN(c2cccc4cccc(Cl)c24)C3)C[C@@H]1CC#N [adagrasib], which “combination cScore with adagrasib” value [1] is on record?
A: 5.97

Q: And the “combination cScore with adagrasib” value [2]?
A: 4.99
